What was measured:
[1] = test system: pyl-stb seeds; experiment: Azacytidine treatment of pyl-stb seeds, appearance of mutable (pyl-v) individuals; type: in vivo, rice; conditions: for Germination rate (%) / Mutable individual (%) / Individual with mutable or abnormal phenotype / Mutable individual / Normal individual: seeds macerated 24 hrs at 30° C.; for Individual with mutable or abnormal phenotype / Mutable individual / Normal individual: number of individuals
Procedure: pyl-stb seeds were macerated in 0.15, 0.3 or 0.45 mM azacytidine aqueous solution for 24 hrs at 30° C., washed them, left for germination and examined the expression of pyl-v.

[2] = test system: indica rice (93-11); experiment: Azacytidine treatment of indica rice (93-11), release of nDart; type: in vivo; conditions: 93-11 treated with azacytidine; no release under usual growth conditions
Procedure: Furthermore, indica rice (93-11) was treated with azacytidine and confirmed release of nDart.

`Nc1ncn([C@@H]2O[C@H](CO)[C@@H](O)[C@H]2O)c(=O)n1` [azaC, 5-azacytidine] was tested, and the “Frequency of the transposition of nDart” value ([1]; 0.15, 0.3 or 0.45 mM azacytidine aqueous solution, 24 hrs at 30° C.) was “increased as the concentration of azacytidine increased”, the “Germination rate (%)” value ([1]; azaC 0.15 mM) was 99% and the “Mutable individual (%)” value ([1]; azaC 0.15 mM) was 60.6%. The “Individual with mutable or abnormal phenotype” value ([1]; azaC 0.15 mM) was 17, the Mutable individual ([1]; azaC 0.15 mM) was 43 and the Normal individual ([1]; azaC 0.15 mM) was 39. The “Germination rate (%)” value ([1]; azaC 0.3 mM) was 92%, the “Mutable individual (%)” value ([1]; azaC 0.3 mM) was 69.6% and the “Individual with mutable or abnormal phenotype” value ([1]; azaC 0.3 mM) was 27. For the same compound, the Mutable individual ([1]; azaC 0.3 mM) was 37, the Normal individual ([1]; azaC 0.3 mM) was 28 and the “Germination rate (%)” value ([1]; azaC 0.45 mM) was 95%. The “Mutable individual (%)” value ([1]; azaC 0.45 mM) was 73.7%, the “Individual with mutable or abnormal phenotype” value ([1]; azaC 0.45 mM) was 36 and the Mutable individual ([1]; azaC 0.45 mM) was 34. For the same compound, the Normal individual ([1]; azaC 0.45 mM) was 25, the “Change of pyl-stb to a pyl-v mutant” value ([1]; azacytidine treatment of pyl-stb seeds) was “able to be changed to a pyl-v mutant” and the “Release of nDart” value [2] was “release was confirmed”.

From patent publication US20060212961A1, “Rice transposon gene” (priority 2003, published 2006)
